Molecules are shown by their SMILES.

The target in this experiment is T1, HCV NS3/4A protease complex (H77 strain) (Hepatitis C virus genotype 1a, UniProt P27958, C1454S/C1711G).
T1 construct: DNA encoding the recombinant HCV NS3/4A protease complex (amino acids 1027 to 1711) for these strains; inferred from pET21b vector and Ni-NTA purification; made in house; host or cells: Escherichia coli BL21 (DE3), pET21b
In words: FRET peptide assay to monitor HCV NS3/4A proteolytic activity, H77 strain. It counts as biochemical. From the text: HCV NS3 protease complexes, derived from the BMS strain, H77 strain or J4L6S strain, were generated, as described below. These purified recombinant proteins were generated for use in a homogeneous assay (see below) to provide an indication of how effective compounds of the present disclosure would be in inhibiting HCV NS3 proteolytic activity.
The H77 and J4L6S strains were used for production of recombinant NS3/4A protease complexes. DNA encoding the recombinant HCV NS3/4A protease complex (amino acids 1027 to 1711) for these strains was manipulated as described by P. Gallinari et al. (see Gallinari P, Paolini C, Brennan D, Nardi C, Steinkuhler C, De Francesco R. Biochemistry. 38(17):5620-32, (1999)). Briefly, a three-lysine solubilizing tail was added at the 3′-end of the NS4A coding region. The cysteine in the P1 position of the NS4A-NS4B cleavage site (amino acid 1711) was changed to a glycine to avoid the proteolytic cleavage of the lysine tag. Furthermore, a cysteine to serine mutation was introduced by PCR at amino acid position 1454 to prevent the autolytic cleavage in the NS3 helicase domain. […]

T1 sequence (P27958 1027-1711 C1454S/C1711G, one chain of several): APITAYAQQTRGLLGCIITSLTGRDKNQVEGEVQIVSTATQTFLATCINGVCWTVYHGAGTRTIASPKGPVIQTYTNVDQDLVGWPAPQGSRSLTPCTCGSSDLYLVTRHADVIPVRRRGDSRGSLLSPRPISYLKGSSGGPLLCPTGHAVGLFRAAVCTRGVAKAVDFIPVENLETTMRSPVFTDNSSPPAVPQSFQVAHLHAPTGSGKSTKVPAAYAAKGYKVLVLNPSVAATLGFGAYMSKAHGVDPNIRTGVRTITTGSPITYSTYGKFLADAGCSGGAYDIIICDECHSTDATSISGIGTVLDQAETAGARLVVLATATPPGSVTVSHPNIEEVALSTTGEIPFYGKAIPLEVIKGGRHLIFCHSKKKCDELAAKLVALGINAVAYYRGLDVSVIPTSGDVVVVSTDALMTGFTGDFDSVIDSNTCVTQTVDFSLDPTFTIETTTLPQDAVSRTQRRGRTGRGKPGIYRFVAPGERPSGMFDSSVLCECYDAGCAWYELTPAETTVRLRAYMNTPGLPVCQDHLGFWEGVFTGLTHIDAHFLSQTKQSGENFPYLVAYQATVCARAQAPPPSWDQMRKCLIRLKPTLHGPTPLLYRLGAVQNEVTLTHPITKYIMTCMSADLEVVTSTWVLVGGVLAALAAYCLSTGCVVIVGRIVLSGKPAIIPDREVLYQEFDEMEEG

Broadly, the IC50 is the midpoint of a concentration-inhibition curve. The low end stands for inhibition by little substance, the high end for a need for much substance. Compound `C=C[C@@H]1C[C@]1(NC(=O)[C@@H]1C[C@@H](OC(=O)N2Cc3cccc(F)c3C2)CN1C(=O)[C@@H](OC(=O)NC(C)(C)C)C(C)(C)C)C(=O)NS(=O)(=O)C1CC1` [Example 56Compound 56] returned a half-maximal inhibitory concentration (IC50) of 17 nM. That is a double-digit nanomolar value.

These data come from patent US7323447B2, “Hepatitis C virus inhibitors” (Bristol-Myers Squibb Company, priority 2005, dated 2008).
